Data taken from patent US8278300B2, “Use for PDE5 inhibitors” (Nycomed GmbH, priority 2004, dated 2012).

Legend:
[1] = test system: epicardial coronary arteries; conditions: patients with coronary artery disease; cited from earlier work
[2] = test system: rats with LPS-induced sepsis; assay: LPS-induced sepsis in anaesthetized rats: sensoric evoked potentials and evoked cerebral blood flow; format: in vivo, rat; conditions: 4½ h after inducing sepsis with LPS
Method: Modulation of the cerebral blood flow evoked by repetitive electrical stimulation of the sole of one foot of the rats is measured by Doppler ultrasound technology as well as the sensoric evoked neuronal potentials (SEPs) by EEG. Baseline measurements are performed before application of LPS to the rats to induce sepsis.

stroke in rats = conditions: cited from earlier work
[3] = test system: cerebral blood flow within the posterior cerebral artery; assay: Transcranial Doppler of visually stimulated cerebral blood flow in pulmonary hypertension patients; format: in vivo, human; conditions: for cerebral microvascular reactivity: patients with chronic pulmonary hypertension
From the text: It has been shown—contrary to the skilled person's expectation, that the vasodilating effect achieved with a PDE5 inhibitor extends to the improvement of the kinetics in blood flow changes upon stimulation of the cortex by utilizing a visual stimulation paradigm. This could be shown by using the doppler-ultrasound technology which can measure the heart-beat dependent pulsatile blood flow within the basale cerebral vasculature with very high resolution. With a standard visual stimulation the Doppler is able by insonate the posterior cerebral artery to measure the activity-dependent blood-flow-regulation. [Rosengarten et al. (2001) Neurovascular coupling in terms of a control system: validation of a second-order linear system model. Ultrasound Med. Biol. 27: 631-5; Babikian et al. (2000) Transcranial Doppler ultrasonography: year 2000 update. J Neuroimaging 10: 101-115]
A pharmaceutical preparation comprising a PDE5 inhibitor can be used to treat patients with primary and secondary pulmonary hypertension. […] The hemodynamics aspects of the cerebral blood flow modulation can be described by a mathematical model (see Rosengarten et al., Headache 2003; 43: 458-463). This cited model contains a parameter T which defines the initial fast responding properties of the blood flow upon visual stimulation and three parameters (K, ζ and ω) which define the delayed adjustment of the […] blood flow. T is called the hold-back-time or rate time, K is the gain (which means change in blood flow velocity upon visual stimulation),ζ the attenuation (which represents the dampening due to vessel wall attenuation) and ω the natural frequency (represents the oscillating properties in dynamic neurovascular coupling). Patients with primary and secondary pulmonary hypertension display a pulmonary disturbance between ventilation of the alveoli and their perfusion. Such a demand-dependent inadequate perfusion has also been shown for the vasculature near the muscles. In this invention it is shown that patients with pulmonary hypertension display an increase in the rate time (meaning T is larger) and an enhanced attenuation ζ of the cerebral blood flow within the posterior cerebral artery upon visual stimulation. Thus it is shown that the mentioned disturbed micro-perfusion observed in patients with pulmonary hypertension extents to that of the brain. […] In addition the pro-longed hold-back time (rate time) in the patients is shortened by treatment with the PDE5-inhibitor sildenafil. This measurements have been performed 1 h after sildenafil intake but all responses to oral sildenafil outlasted 120-150 min.
In contrast to sildenafil iloprost treatment (2,8 μg inhaled in 4 min) worsens the impaired rate time and attenuation in patients with pulmonary hypertension (FIG. 1).
FIG. 1. Assessment of cerebral flow characteristics. Values for rate time and attenuation are presented in this graph. Medians (filled circles) and 95% confidence intervals (bars) are given for healthy controls, and patients at baseline (untreated), after iloprost inhalation, and subsequent to oral sildenafil intake. Statistical differences were assessed by ANOVA (p-values indicate significant differences between groups). Fisher's post hoc test was calculated at a significance level of p<0.05;

pulmonary circulation = assay: Pulmonary haemodynamics in patients with chronic pulmonary hypertension; format: in vivo, human; conditions: inhaled iloprost, oral sildenafil
[4] = patients with pulmonary hypertension, iloprost 2,8 μg inhaled in 4 min

Row | Structure (SMILES) | relaxation of epicardial coronary arteries [1] | stimulus induced cerebral blood flow ([2]; Doppler ultrasound) | amplitude of the SEP (sensoric evoked neuronal potentials) ([2]; electrical stimulation of one foot) | functional recovery after stroke (stroke in rats) | neurogenesis after stroke (stroke in rats) | cerebral microvascular reactivity [3] | duration of responses to oral sildenafil ([3]; patients with pulmonary hypertension, 50 mg oral) [min] | hold-back time (rate time) T of cerebral blood flow upon visual stimulation ([3]; patients with pulmonary hypertension, sildenafil 50 mg, oral, 1 h after intake) | attenuation parameter ζ of cerebral blood flow upon visual stimulation ([3]; patients with pulmonary hypertension, sildenafil 50 mg, oral, one hour before measurement) | pulmonary arterial pressure (pulmonary circulation) | pulmonary vascular resistance (pulmonary circulation) | attenuation of cerebral blood flow upon visual stimulation [3, 4] | rate time of cerebral blood flow upon visual stimulation [3, 4]
1 | CCCc1nn(C)c2c(=O)[nH]c(-c3cc(S(=O)(=O)N4CCN(C)CC4)ccc3OCC)nc12 [sildenafil, 5-[2-ethoxy-5-(4-methylpiperazin-1-ylsulfonyl)phenyl]-1,6-dihydro-1-methyl-3-propylpyrazolo[4,3-d]pyrimidin-7-one] | relax epicardial coronary arteries | greatly restores | greatly restores | promotes functional recovery | induces neurogenesis | significantly improved | 120 to 150 | shortened | significantly reduced | significant reduction | significant reduction | – | –
2 | CC#CCC(C)[C@H](O)/C=C/[C@@H]1[C@H]2C/C(=C/CCCC(=O)O)C[C@H]2C[C@H]1O (stereo partly shown) [iloprost] | – | – | – | – | – | gradually worsened | – | – | – | significant reduction | significant reduction | worsens | worsens
